From ChEMBL document CHEMBL4627352, “New acrylamide-sulfisoxazole conjugates as dihydropteroate synthase inhibitors” (Bioorg Med Chem, 2020)
Values after ≈ are worked out from the molar mass of the structure shown. Active and inactive are the calls of the source. The calls are words filed in the database; no cut-off is given here.

Legend:
[1] = test system: Escherichia coli ATCC 25922; assay: Inhibition of DHPS in Escherichia coli ATCC 25922 assessed as inhibition of bacterial growth incubated for 24 hrs in presence of folate precursor, pABA by microbroth dilution method
Klebsiella pneumoniae [2] = assay: Inhibition of DHPS in Klebsiella pneumoniae assessed as antibacterial activity by measuring inhibition of bacterial growth incubated for 24 hrs by microbroth dilution method
Proteus vulgaris [3] = assay: Inhibition of DHPS in Proteus vulgaris assessed as antibacterial activity by measuring inhibition zone at 5 mg/mL incubated for 24 hrs by disk diffusion method
Escherichia coli [4] = assay: Inhibition of DHPS in Escherichia coli assessed as antibacterial activity by measuring inhibition zone at 5 mg/mL incubated for 24 hrs by disk diffusion method
Bacillus subtilis [5] = assay: Potency index, ratio of ampicillin MIC to compound MIC for Bacillus subtilis assessed as inhibition of DHPS-mediated bacterial growth incubated for 24 hrs by microbroth dilution method
[6] = test system: Syncephalastrum racemosum; assay: Potency index, ratio of amphotericin B MIC to compound MIC for Syncephalastrum racemosum assessed as inhibition of DHPS-mediated fungal growth incubated for 48 hrs by microbroth dilution method
Proteus vulgaris [7] = assay: Inhibition of DHPS in Proteus vulgaris assessed as antibacterial activity by measuring inhibition of bacterial growth incubated for 24 hrs by microbroth dilution method
Klebsiella pneumoniae [8] = assay: Inhibition of DHPS in Klebsiella pneumoniae assessed as antibacterial activity by measuring inhibition zone at 5 mg/mL incubated for 24 hrs by disk diffusion method
Escherichia coli [9] = assay: Potency index, ratio of gentamycin MIC to compound MIC for Escherichia coli assessed as inhibition of DHPS-mediated bacterial growth incubated for 24 hrs by microbroth dilution method
[10] = test system: Syncephalastrum racemosum; assay: Inhibition of DHPS in Syncephalastrum racemosum assessed as antifungal activity by measuring inhibition of fungal growth incubated for 48 hrs by microbroth dilution method
Bacillus subtilis [11] = assay: Inhibition of DHPS in Bacillus subtilis assessed as antibacterial activity by measuring inhibition of bacterial growth incubated for 24 hrs by microbroth dilution method
[12] = test system: Syncephalastrum racemosum; assay: Inhibition of DHPS in Syncephalastrum racemosum assessed as antifungal activity by measuring inhibition zone at 5 mg/mL incubated for 48 hrs by disk diffusion method
Streptococcus pneumoniae [13] = assay: Inhibition of DHPS in Streptococcus pneumoniae assessed as antibacterial activity by measuring inhibition of bacterial growth incubated for 24 hrs by microbroth dilution method
Geotrichum candidum [14] = assay: Inhibition of DHPS in Geotrichum candidum assessed as antifungal activity by measuring inhibition zone at 5 mg/mL incubated for 48 hrs by disk diffusion method
[15] = test system: Escherichia coli ATCC 25922; assay: Inhibition of DHPS in Escherichia coli ATCC 25922 assessed as inhibition of bacterial growth incubated for 24 hrs in presence of folate dependent metabolite, methionine by microbroth dilution method
[16] = test system: Staphylococcus epidermidis; assay: Inhibition of DHPS in Staphylococcus epidermidis assessed as antibacterial activity by measuring inhibition zone at 5 mg/mL incubated for 24 hrs by disk diffusion method
Streptococcus pneumoniae [17] = assay: Inhibition of DHPS in Streptococcus pneumoniae assessed as antibacterial activity by measuring inhibition zone at 5 mg/mL incubated for 24 hrs by disk diffusion method
Aspergillus fumigatus [18] = assay: Inhibition of DHPS in Aspergillus fumigatus assessed as antifungal activity by measuring inhibition zone at 5 mg/mL incubated for 48 hrs by disk diffusion method
Aspergillus fumigatus [19] = assay: Inhibition of DHPS in Aspergillus fumigatus assessed as antifungal activity by measuring inhibition of fungal growth incubated for 48 hrs by microbroth dilution method
Escherichia coli [20] = assay: Inhibition of DHPS in Escherichia coli assessed as antibacterial activity by measuring inhibition of bacterial growth incubated for 24 hrs by microbroth dilution method
[21] = test system: Staphylococcus epidermidis; assay: Inhibition of DHPS in Staphylococcus epidermidis assessed as antibacterial activity by measuring inhibition of bacterial growth incubated for 24 hrs by microbroth dilution method
Geotrichum candidum [22] = assay: Inhibition of DHPS in Geotrichum candidum assessed as antifungal activity by measuring inhibition of fungal growth incubated for 48 hrs by microbroth dilution method
Bacillus subtilis [23] = assay: Inhibition of DHPS in Bacillus subtilis assessed as antibacterial activity by measuring inhibition zone at 5 mg/mL incubated for 24 hrs by disk diffusion method
Klebsiella pneumoniae [24] = assay: Potency index, ratio of sulfisoxazole MIC to compound MIC for Klebsiella pneumoniae assessed as inhibition of DHPS-mediated bacterial growth incubated for 24 hrs by microbroth dilution method
[25] = test system: Staphylococcus epidermidis; assay: Potency index, ratio of sulfisoxazole MIC to compound MIC for Staphylococcus epidermidis assessed as inhibition of DHPS-mediated bacterial growth incubated for 24 hrs by microbroth dilution method
Aspergillus fumigatus [26] = assay: Potency index, ratio of sulfisoxazole MIC to compound MIC for Aspergillus fumigatus assessed as inhibition of DHPS-mediated fungal growth incubated for 48 hrs by microbroth dilution method
Geotrichum candidum [27] = assay: Potency index, ratio of sulfisoxazole MIC to compound MIC for Geotrichum candidum assessed as inhibition of DHPS-mediated fungal growth incubated for 48 hrs by microbroth dilution method
Escherichia coli [28] = assay: Potency index, ratio of sulfisoxazole MIC to compound MIC for Escherichia coli assessed as inhibition of DHPS-mediated bacterial growth incubated for 24 hrs by microbroth dilution method
[29] = test system: Syncephalastrum racemosum; assay: Potency index, ratio of sulfisoxazole MIC to compound MIC for Syncephalastrum racemosum assessed as inhibition of DHPS-mediated fungal growth incubated for 48 hrs by microbroth dilution method
hTERT-BJ = assay: Cytotoxicity against human hTERT-BJ1 cells at 50 uM by acid phosphatase assay relative to control; assay type: cell-based

Q: What does the source list for `C=CCN/C(SCC)=C(/C#N)C(=O)Nc1ccc(S(=O)(=O)Nc2onc(C)c2C)cc1`?
A: inhibition [1]: inactive; MIC (Klebsiella pneumoniae [2]): 0.25 µg/mL (≈ 0.542 µM); inhibition zone (IZ) (Proteus vulgaris [3]): 20.7 mm; inhibition zone (IZ) (Escherichia coli [4]): 21.8 mm; Ratio (Bacillus subtilis [5]): 2; Ratio [6]: 3; MIC (Proteus vulgaris [7]): 3.9 µg/mL (≈ 8.45 µM); inhibition zone (IZ) (Klebsiella pneumoniae [8]): 24.7 mm; Ratio (Escherichia coli [9]): 2; MIC [10]: 0.98 µg/mL (≈ 2.12 µM); MIC (Bacillus subtilis [11]): 0.12 µg/mL (≈ 0.26 µM); inhibition zone (IZ) [12]: 22.4 mm; MIC (Streptococcus pneumoniae [13]): 0.12 µg/mL (≈ 0.26 µM); inhibition zone (IZ) (Geotrichum candidum [14]): 22.1 mm; inhibition [15]: inactive; inhibition zone (IZ) [16]: 24.2 mm; inhibition zone (IZ) (Streptococcus pneumoniae [17]): 24.9 mm; inhibition zone (IZ) (Aspergillus fumigatus [18]): 22.9 mm; MIC (Aspergillus fumigatus [19]): 0.49 µg/mL (≈ 1.06 µM); MIC (Escherichia coli [20]): 0.98 µg/mL (≈ 2.12 µM); MIC [21]: 0.25 µg/mL (≈ 0.542 µM); MIC (Geotrichum candidum [22]): 1.95 µg/mL (≈ 4.22 µM); inhibition zone (IZ) (Bacillus subtilis [23]): 26.8 mm

Q: Which inhibition [1] does the source give for `CN/C(S)=C(/C#N)C(=O)Nc1ccc(S(=O)(=O)Nc2onc(C)c2C)cc1` here?
A: The inhibition was “inactive”.

Q: And the MIC (Klebsiella pneumoniae [2])?
A: Its MIC is 0.98 µg/mL (≈ 2.41 µM).

Q: And the inhibition zone (IZ) (Proteus vulgaris [3])?
A: The inhibition zone (IZ) was 18.3 mm.

Q: What about the Ratio (Klebsiella pneumoniae [24]) of the same compound?
A: Its Ratio is 3.

Q: And the inhibition zone (IZ) (Escherichia coli [4])?
A: Its inhibition zone (IZ) is 20.6 mm.

Q: What about the MIC (Proteus vulgaris [7]) of the same compound?
A: The MIC was 7.81 µg/mL (≈ 19.2 µM).

Q: And the inhibition zone (IZ) (Klebsiella pneumoniae [8])?
A: The inhibition zone (IZ) was 22.6 mm.

Q: What about the MIC [10] of the same compound?
A: Its MIC is 15.6 µg/mL (≈ 38.4 µM).

Q: What about the MIC (Bacillus subtilis [11]) of the same compound?
A: Its MIC is 0.98 µg/mL (≈ 2.41 µM).

Q: And the Ratio [25]?
A: The Ratio was 4.

Q: And the inhibition zone (IZ) [12]?
A: Its inhibition zone (IZ) is 17.2 mm.

Q: What about the MIC (Streptococcus pneumoniae [13]) of the same compound?
A: Its MIC is 3.9 µg/mL (≈ 9.57 µM).

Q: And the inhibition zone (IZ) (Geotrichum candidum [14])?
A: The inhibition zone (IZ) was 18.9 mm.

Q: What about the inhibition [15] of the same compound?
A: The inhibition was “inactive”.

Q: What about the inhibition zone (IZ) [16] of the same compound?
A: Its inhibition zone (IZ) is 20.8 mm.

Q: What about the inhibition zone (IZ) (Streptococcus pneumoniae [17]) of the same compound?
A: The inhibition zone (IZ) was 20.3 mm.

Q: And the inhibition zone (IZ) (Aspergillus fumigatus [18])?
A: The inhibition zone (IZ) was 18.6 mm.

Q: What about the MIC (Aspergillus fumigatus [19]) of the same compound?
A: Its MIC is 3.9 µg/mL (≈ 9.57 µM).

Q: And the MIC (Escherichia coli [20])?
A: Its MIC is 1.95 µg/mL (≈ 4.79 µM).

Q: What about the Ratio (Aspergillus fumigatus [26]) of the same compound?
A: The Ratio was 4.

Q: What about the Ratio (Geotrichum candidum [27]) of the same compound?
A: The Ratio was 2.

Q: What about the MIC [21] of the same compound?
A: Its MIC is 1.95 µg/mL (≈ 4.79 µM).

Q: What about the MIC (Geotrichum candidum [22]) of the same compound?
A: Its MIC is 3.9 µg/mL (≈ 9.57 µM).

Q: And the inhibition zone (IZ) (Bacillus subtilis [23])?
A: The inhibition zone (IZ) was 22.4 mm.

Q: What does the source list for `CCN/C(S[C@@H]1O[C@H](COC(C)=O)[C@H](OC(C)=O)[C@H](OC(C)=O)[C@H]1OC(C)=O)=C(/C#N)C(=O)Nc1ccc(S(=O)(=O)Nc2onc(C)c2C)cc1`?
A: inhibition [1]: inactive; Ratio (Escherichia coli [28]): 3; MIC (Klebsiella pneumoniae [2]): 7.81 µg/mL (≈ 10.4 µM); inhibition zone (IZ) (Proteus vulgaris [3]): 13.4 mm; inhibition zone (IZ) (Escherichia coli [4]): 17.1 mm; Ratio [29]: 1 to 3; MIC (Proteus vulgaris [7]): 125 µg/mL (≈ 166 µM); inhibition zone (IZ) (Klebsiella pneumoniae [8]): 19.8 mm; MIC [10]: 31.2 µg/mL (≈ 41.6 µM); MIC (Bacillus subtilis [11]): 7.8 µg/mL (≈ 10.4 µM); inhibition zone (IZ) [12]: 15.9 mm; MIC (Streptococcus pneumoniae [13]): 7.8 µg/mL (≈ 10.4 µM); inhibition zone (IZ) (Geotrichum candidum [14]): 18.3 mm; inhibition [15]: inactive; inhibition zone (IZ) [16]: 16.3 mm; inhibition zone (IZ) (Streptococcus pneumoniae [17]): 18.9 mm; inhibition zone (IZ) (Aspergillus fumigatus [18]): 17.2 mm; MIC (Aspergillus fumigatus [19]): 15.6 µg/mL (≈ 20.8 µM); MIC (Escherichia coli [20]): 7.81 µg/mL (≈ 10.4 µM); Ratio (Aspergillus fumigatus [26]): 1 to 3; MIC [21]: 31.2 µg/mL (≈ 41.6 µM); MIC (Geotrichum candidum [22]): 31.2 µg/mL (≈ 41.6 µM); inhibition zone (IZ) (Bacillus subtilis [23]): 17.6 mm

Q: `CN/C(S[C@@H]1O[C@H](COC(C)=O)[C@H](OC(C)=O)[C@H](OC(C)=O)[C@H]1OC(C)=O)=C(/C#N)C(=O)Nc1ccc(S(=O)(=O)Nc2onc(C)c2C)cc1` was tested. Which inhibition [1] did it give?
A: Its inhibition is “inactive”.

Q: What about the MIC (Klebsiella pneumoniae [2]) of the same compound?
A: The MIC was 31.2 µg/mL (≈ 42.4 µM).

Q: What about the inhibition zone (IZ) (Proteus vulgaris [3]) of the same compound?
A: Its inhibition zone (IZ) is 11.8 mm.

Q: And the Activity (hTERT-BJ)?
A: Its Activity is 26%.

Q: What about the inhibition zone (IZ) (Escherichia coli [4]) of the same compound?
A: Its inhibition zone (IZ) is 16.3 mm.

Q: And the Ratio [29]?
A: The Ratio was 1 to 3.

Q: And the inhibition zone (IZ) (Klebsiella pneumoniae [8])?
A: The inhibition zone (IZ) was 17.1 mm.

Q: And the MIC [10]?
A: Its MIC is 62.5 µg/mL (≈ 84.7 µM).

Q: What about the MIC (Bacillus subtilis [11]) of the same compound?
A: Its MIC is 15.6 µg/mL (≈ 21.2 µM).

Q: What about the inhibition zone (IZ) [12] of the same compound?
A: Its inhibition zone (IZ) is 15.1 mm.

Q: And the MIC (Streptococcus pneumoniae [13])?
A: Its MIC is 15.6 µg/mL (≈ 21.2 µM).

Q: What about the inhibition zone (IZ) (Geotrichum candidum [14]) of the same compound?
A: Its inhibition zone (IZ) is 16.9 mm.

Q: And the inhibition [15]?
A: Its inhibition is “inactive”.

Q: What about the inhibition zone (IZ) [16] of the same compound?
A: The inhibition zone (IZ) was 15.4 mm.

Q: And the inhibition zone (IZ) (Streptococcus pneumoniae [17])?
A: Its inhibition zone (IZ) is 17.3 mm.

Q: What about the inhibition zone (IZ) (Aspergillus fumigatus [18]) of the same compound?
A: The inhibition zone (IZ) was 16.3 mm.

Q: What about the MIC (Aspergillus fumigatus [19]) of the same compound?
A: Its MIC is 31.2 µg/mL (≈ 42.4 µM).

Q: What about the MIC (Escherichia coli [20]) of the same compound?
A: The MIC was 15.6 µg/mL (≈ 21.2 µM).

Q: And the Ratio (Aspergillus fumigatus [26])?
A: The Ratio was 1 to 3.

Q: And the MIC [21]?
A: Its MIC is 62.5 µg/mL (≈ 84.7 µM).

Q: And the MIC (Geotrichum candidum [22])?
A: Its MIC is 62.5 µg/mL (≈ 84.7 µM).

Q: What about the inhibition zone (IZ) (Bacillus subtilis [23]) of the same compound?
A: The inhibition zone (IZ) was 16.8 mm.
